Assay: Surface tension of surfactant added at 0.5% by mass to CTFA (plate method, 25° C.)
Assay type: physicochemical
Details: neat CTFA
Description: In the present disclosure, the “polymerizable surfactant” refers to a surfactant having a polymerizable group. In the present disclosure, the “surfactant” refers to a compound in which, in a case of adding the compound in an addition amount of 0.5% by mass with respect to cyclic trimethylolpropane formal acrylate (hereinafter, referred to as “CTFA”), a surface tension is reduced 1 mN/m or more. The surface tension is measured by a plate method at 25° C. using a surface tension meter, and for example, can be measured using an automatic surface tension meter (product name “DY-300”) manufactured by Kyowa Interface Science Co., Ltd. A surface tension of CTFA is 36.5 mN/m. […]
With regard to a product in which the content of the surfactant is not 100% by mass (for example, a product containing a solvent other than the surfactant), the content of the surfactant is adjusted to 100% by mass, and the surface tension is measured using the surfactant alone. […]
In Tables 1 to 10, “Polyfunctional monomer/polymerizable surfactant” indicates the mass ratio of the content of the polyfunctional monomer to the content of the polymerizable surfactant. […] The surface tension reduction relative to CTFA was calculated based on the following expression.

| Surface tension of CTFA | Molecule |
| --- | --- |
| 36.5 mN/m | C=CC(=O)OCC1(CC)COCOC1 [CTFA, cyclic trimethylolpropane formal acrylate] |

Assay: Specific gravity of polymerizable monomer (gravimeter)
Assay type: physicochemical
Details: not given
Description: Among these, the polymerizable monomer preferably includes a polymerizable monomer having a specific gravity of 1.0 or less.
In the present disclosure, the specific gravity is measured using a gravimeter, for example, a high precision electronic gravimeter (model number “EW-300SG”, manufactured by Alfa Mirage).

| Specific gravity | Molecule |
| --- | --- |
| 0.894 g/mL | C=CC(=O)OCCCCCCCC [n-Octyl acrylate] |
| 1.05 g/mL | C=CC(=O)OCCOCCOCCOC(=O)C=C [TEGDA] |
| 0.89 g/mL | C=CC(=O)NC(C)C [N-Isopropyl acrylamide] |
| 0.86 g/mL | C=CC(=O)OCCCCCCCCCCCCCCCCCC [Stearyl acrylate] |
| 1.00 g/mL | C=COCCOCCOCCOC=C [Triethylene glycol divinyl ether] |
| 1.03 g/mL | C=CC(=O)OCCC(C)CCOC(=O)C=C [Example 3MPDDA] |
| 0.941 g/mL | t-Butylcyclohexyl acrylate |
| 0.93 g/mL | Tricyclohexyl acrylate |
| 0.875 g/mL | C=CC(=O)OCCCCCCCCC [Nonyl acrylate] |
| 0.968 g/mL | C=CC(=O)OCCCCCCCCCCOC(=O)C=C [Decanediol diacrylate] |
| 0.871 g/mL | C=CC(=O)OCCCCCCCCCCCCCCCC(C)C [Isostearyl acrylate] |
| 0.885 g/mL | C=CC(=O)OCCCCCCC(C)C [Isononyl acrylate] |
| 1.09 g/mL | C=CC(=O)OCC1(CC)COCOC1 [CTFA, cyclic trimethylolpropane formal acrylate] |
| 0.875 g/mL | C=CC(=O)OCCCCCCCCCCCC [Lauryl acrylate] |

| Molecule | Specific gravity |
| --- | --- |
| C=CC(=O)OC1CCCCC1 [Cyclohexyl acrylate] | 0.98 g/mL |
| C=CC(=O)O[C@@H]1C[C@H]2CC[C@]1(C)C2(C)C [Isobornyl acrylate] | 0.987 g/mL |
| C=CC(=O)OCCCCO [Example 4-HBA] | 1.04 g/mL |
| C=CC(=O)N(C)C [N,N-Dimethylacrylamide] | 0.964 g/mL |
| C=CC(=O)OCCCCCCCC(C)C [Isodecyl acrylate] | 0.88 g/mL |

Same assay, conditions: listed as DDDA

| Specific gravity | Molecule |
| --- | --- |
| 0.97 g/mL | C=CC(=O)OCCCCCCCCCCOC(=O)C=C [Decanediol diacrylate] |

— patent publication US20240043706A1, “ACTIVE ENERGY RAY-CURABLE INKJET INK FOR BEVERAGE CONTAINER, ACTIVE ENERGY RAY-CURABLE INKJET INK SET, AND IMAGE RECORDING METHOD” (FUJIFILM CORPORATION, priority 2021, published 2024)
